Measurements reported in ChEMBL document CHEMBL2424638, “6-Bromo-8-(4-[(3)H]methoxybenzamido)-4-oxo-4H-chromene-2-carboxylic Acid: a powerful tool for studying orphan G protein-coupled receptor GPR35” (J Med Chem, 2013).

Tests used:
[1] = biological target: T1, G-protein coupled receptor 35 (Homo sapiens, UniProt Q9HC97); assay: Agonist activity at C-terminal beta-galactosidase tagged human recombinant GPR35 expressed in CHO cells at 100 uM after 90 mins by beta-arrestin recruitment assay relative to zaprinast; assay type: cell-based
T1 sequence (Q9HC97 whole entry): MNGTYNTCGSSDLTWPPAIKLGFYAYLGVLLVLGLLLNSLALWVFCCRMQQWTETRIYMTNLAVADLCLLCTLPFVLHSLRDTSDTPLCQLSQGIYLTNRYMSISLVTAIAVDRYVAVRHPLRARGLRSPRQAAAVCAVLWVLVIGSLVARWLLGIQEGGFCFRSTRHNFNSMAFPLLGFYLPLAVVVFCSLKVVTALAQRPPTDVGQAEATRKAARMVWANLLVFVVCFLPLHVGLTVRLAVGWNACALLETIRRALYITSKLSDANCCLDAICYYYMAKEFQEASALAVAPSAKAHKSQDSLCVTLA

[2] = biological target: T1, G-protein coupled receptor 35; assay: Agonist activity at C-terminal beta-galactosidase tagged human recombinant GPR35 expressed in CHO cells after 90 mins by beta-arrestin recruitment assay; assay type: cell-based
[3] = biological target: T1, G-protein coupled receptor 35; assay: biochemical; assay type: cell-based, CHO
Description: Displacement of [3H]PSB-13253 from human recombinant GPR35 exprssed in CHO cells by liquid scintillation counting analysis

[4] = biological target: T1, G-protein coupled receptor 35; assay: Binding affinity to human recombinant GPR35 expressed in CHO cells after 150 mins by liquid scintillation counting analysis
[5] = biological target: T1, G-protein coupled receptor 35; assay: Competitive binding affinity to human recombinant GPR35 expressed in CHO cells by scintillation counting analysis in presence of CaCl2; assay type: cell-based
[6] = biological target: T1, G-protein coupled receptor 35; assay: Competitive binding affinity to human recombinant GPR35 expressed in CHO cells by scintillation counting analysis in presence of MgCl2; assay type: cell-based
[7] = biological target: T1, G-protein coupled receptor 35; assay: Binding affinity to human recombinant GPR35 expressed in CHO cells by scintillation counting analysis in absence of MgCl2, NaCl, CaCl2; assay type: cell-based
[8] = biological target: T1, G-protein coupled receptor 35; assay: Agonist activity at human GPR35 expressed in HEK293T cells at 5 uM by EYPF-based beta-arrestin-2 luciferase reporter gene assay; assay type: cell-based, HEK-293T
[9] = biological target: T1, G-protein coupled receptor 35; assay: Displacement of [3H]PSB-13253 from human recombinant GPR35 exprssed in CHO cells at 10 uM by liquid scintillation counting analysis; assay type: cell-based
[10] = biological target: T1, G-protein coupled receptor 35; assay: Agonist activity at human GPR35 expressed in CHO cells assessed as increase in intracellular Ca2+ measured over 20 secs by Aequorin assay; assay type: functional, cell-based
[11] = biological target: T1, G-protein coupled receptor 35; assay: Antagonist activity at human GPR35 expressed in human HT29 cells after 1 hr by DMR assay; assay type: cell-based; conditions: ht-29
[12] = biological target: T1, G-protein coupled receptor 35; assay: Antagonist activity at human Gal4-VP16 fused GPR35 expressed in human U2OS cells assessed as beta arrestin translocation by reporter gene assay; assay type: cell-based
[13] = biological target: T1, G-protein coupled receptor 35; assay: Antagonist activity at C-terminal beta-galactosidase tagged human recombinant GPR35 expressed in CHO cells after 90 mins by beta-arrestin recruitment assay; assay type: cell-based
[14] = biological target: T1, G-protein coupled receptor 35; conditions: CHO, 5 nM
[15] = biological target: T1, G-protein coupled receptor 35; conditions: CHO, 5 nM; remark: listed apart in the source
[16] = biological target: T1, G-protein coupled receptor 35; conditions: CHO, 5 nM; remark: listed apart in the source
[17] = biological target: T1, G-protein coupled receptor 35; conditions: CHO, 5 nM; remark: listed apart in the source
[18] = biological target: T1, G-protein coupled receptor 35; conditions: CHO, 5 nM; remark: listed apart in the source
[19] = biological target: T1, G-protein coupled receptor 35; assay: Agonist activity at human GPR35 by Ca+2 release assay
[20] = biological target: T1, G-protein coupled receptor 35; assay: Agonist activity at human GPR35 by DMR assay

Row | Compound | Ki [3] [nM] | other results
1 | [3H]C([3H])([3H])Oc1ccc(C(=O)Nc2cc(Br)cc3c(=O)cc(C(=O)O)oc23)cc1 | – | Kd [4]: 5.27 nM; Kd [5]: 5.92 nM; Kd [6]: 5.65 nM; Kd [7]: 115 nM
2 | COc1ccc(C(=O)Nc2cc(Br)cc3c(=O)cc(C(=O)O)oc23)cn1 | 25.7 | –
3 | O=C(Nc1cccc2c(=O)cc(C(=O)O)oc12)c1ccc2ccccc2c1 | 714 | –
4 | COc1ccc(C(=O)Nc2cc(Cl)cc3c(=O)cc(C(=O)O)oc23)cc1 | 5.5 | –
5 | CCOC(=O)c1cc(=O)c2cc(F)cc(NC(=O)c3ccc(OC)cc3)c2o1 | 198 | –
6 | O=C(Nc1cc(Cl)cc2c(=O)cc(C(=O)O)oc12)c1ccc([N+](=O)[O-])cc1 | 183 | –
7 | COc1ccc(C(=O)Nc2cc(Br)cc3c(=O)cc(C(=O)O)oc23)cc1OC | 228 | –
8 | NS(=O)(=O)c1cc(C(=O)O)c(NCc2ccco2)cc1Cl | – | Emax [1]: 96%
9 | O=C(O)COc1ccc(/C=C2\SC(=O)NC2=O)cc1 | 50.8 | EC50 [8]: 1400 nM; Emax [1]: 107%; EC50 [2]: 349 nM
10 | Nc1cccc2c(=O)cc(C(=O)O)oc12 | – | inhibition [9]: 7%
11 | O=C(O)c1cc(=O)c2cc(F)cc(NC(=O)c3cccc(Cl)c3Cl)c2o1 | 119 | –
12 | Nc1cc(Br)cc2c(=O)cc(C(=O)O)oc12 | 3010 | –
13 | COC(=O)CC(=O)Nc1cccc2c(=O)cc(C(=O)O)oc12 | 18600 | –
14 | O=C(Nc1cccc2c(=O)cc(C(=O)O)oc12)c1ccc2ccccc2n1 | 691 | –
15 | COc1ccc(C(=O)Nc2cccc3c(=O)cc(C(=O)O)oc23)cc1 | 221 | –
16 | COc1ccccc1C(=O)Nc1cc(Br)cc2c(=O)cc(C(=O)O)oc12 | 331 | –
17 | Cc1ccc(C(=O)Nc2cccc3c(=O)cc(C(=O)O)oc23)cc1 | 697 | –
18 | O=C(O)c1cc2ccccc2c(Cc2c(O)c(C(=O)O)cc3ccccc23)c1O | – | Emax [1]: 95%
19 | COc1cc(F)c(C(=O)Nc2cc(Br)cc3c(=O)cc(C(=O)O)oc23)c(F)c1 | 0.589 | Emax [1]: 119%; EC50 [2]: 5.54 nM
20 | COc1ccc(C(=O)Nc2cc(Br)cc3c(=O)cc(C(=O)O)oc23)c(Cl)c1 | 1.12 | –
21 | O=C(Nc1cc(Br)cc2c(=O)cc(C(=O)O)oc12)c1ccc(Cl)cc1 | 4.79 | –
22 | O=C(Nc1cccc2c(=O)cc(C(=O)O)oc12)c1cccc([N+](=O)[O-])c1 | 4390 | –
23 | N#Cc1ccc(C(=O)Nc2cc(Br)cc3c(=O)cc(C(=O)O)oc23)cc1 | 148 | –
24 | CCCOc1ccc(C(=O)Nc2cccc3c(=O)cc(C(=O)O)oc23)cc1 | 8060 | –
25 | COc1ccc(C(=O)Nc2cc(Cl)cc3c(=O)cc(C(=O)O)oc23)c(F)c1 | 1.92 | Emax [1]: 111%; EC50 [2]: 6.06 nM

Further lines, with some results ahead:

Row | Ki [3] [nM] | Compound | other results
26 | 42.8 | COc1ccc(C(=O)Nc2cc(C)cc3c(=O)cc(C(=O)O)oc23)cc1 | Emax [1]: 118%; EC50 [2]: 37.7 nM
27 | 250 | Cc1cccc(C(=O)Nc2cc(Cl)cc3c(=O)cc(C(=O)O)oc23)c1 | –
28 | 1.64 | COc1ccc(C(=O)Nc2cc(Br)cc3c(=O)cc(C(=O)O)oc23)cc1F | Emax [1]: 120%; EC50 [2]: 4.37 nM
29 | 15 | O=C(Nc1cc(Br)cc2c(=O)cc(C(=O)O)oc12)c1ccc2c(c1)OCO2 | –
30 | 11.5 | O=C(Nc1cc(F)cc2c(=O)cc(C(=O)O)oc12)c1ccc(Cl)c(Cl)c1 | –
31 | 2720 | O=C(Cc1ccccc1)Nc1cccc2c(=O)cc(C(=O)O)oc12 | –
32 | 1.37 | COc1ccc(C(=O)Nc2cc(Br)cc3c(=O)cc(C(=O)O)oc23)c(F)c1 | Emax [1]: 120%; EC50 [2]: 4.45 nM
33 | 137000 | O=C(O)c1cc(=O)c2ccccc2[nH]1 [TRANSTORINE] | EC50 [10]: 39200 nM
34 | 20.5 | COc1ccc(C(=O)Nc2cc(OC)cc3c(=O)cc(C(=O)O)oc23)cc1 | Emax [1]: 124%; EC50 [2]: 25.5 nM
35 | 18500 | CC(=O)Nc1cccc2c(=O)cc(C(=O)O)oc12 | –
36 | 6770 | CCC(=O)Nc1cccc2c(=O)cc(C(=O)O)oc12 | –
37 | 138 | O=C(Nc1cc(Cl)cc2c(=O)cc(C(=O)O)oc12)c1ccccc1 | –
38 | 98.4 | CCOc1ccc(C(=O)Nc2cc(Br)cc3c(=O)cc(C(=O)O)oc23)cc1 | –
39 | 3710 | O=C(Nc1cccc2c(=O)cc(C(=O)O)oc12)c1ccc(OCC2CC2)cc1 | –
40 | 81.6 | O=C(Nc1cc(Br)cc2c(=O)cc(C(=O)O)oc12)c1ccccc1 | –
41 | 233 | O=C(Nc1cccc2c(=O)cc(C(=O)O)oc12)c1ccc(Br)cc1 | –

Row | Ki [3] [nM] | Compound | other results
42 | 42.2 | COC(=O)c1cnn(-c2ccc(F)cc2F)c1/C=N/NC(=S)NC(C)(C)C | IC50 [11]: 10400 nM; IC50 [12]: 200 nM; IC50 [13]: 574 nM
43 | 0.938 | O=C(O)c1cc(=O)c2cc(Br)cc(NC(=O)c3ccc(Cl)cc3Cl)c2o1 | –
44 | 13600 | O=C(O)c1cc(=O)c2cccc([N+](=O)[O-])c2o1 | –
45 | 4780 | Cc1cccc(C(=O)Nc2cccc3c(=O)cc(C(=O)O)oc23)c1 | –
46 | 655 | CC1=C(C#N)C(=C(C#N)C#N)OC1(C)c1ccc(Cl)c(Cl)c1 (stereo unspecified) | –
47 | 5.18 | COc1ccc(C(=O)Nc2cc(Br)cc3c(=O)cc(C(=O)O)oc23)cc1 | inhibition [14]: 85%; inhibition [15]: 90%; inhibition [16]: 65%; T1/2 [17]: 7.8 min; T1/2 [18]: 9.91 min
48 | 3580 | O=C(O)c1cc(=O)c2cccc(NC(=O)C3CCCCC3)c2o1 | –
49 | 2.18 | O=C(Nc1cc(Br)cc2c(=O)cc(C(=O)O)oc12)c1ccc(Cl)c(Cl)c1 | EC50 [2]: 25.1 nM
50 | 39 | O=c1oc2ccccc2c(O)c1Cc1c(O)c2ccccc2oc1=O [DICUMAROL] | EC50 [8]: 1300 nM; Emax [1]: 107%; EC50 [2]: 9780 nM
51 | 25.4 | COc1ccc(C(=O)Nc2cc(F)cc3c(=O)cc(C(=O)O)oc23)cc1 | –
52 | 2340 | O=C(O)c1cc(=O)c2c(OCC(O)COc3cccc4oc(C(=O)O)cc(=O)c34)cccc2o1 [CROMOLYN] | EC50 [19]: 210 nM; EC50 [20]: 520 nM; Emax [1]: 119%
53 | 4.12 | O=C(O)c1cc(=O)c2cc(F)cc(NC(=O)c3ccc(Cl)cc3Cl)c2o1 | –
54 | 10300 | O=C(Nc1cccc2c(=O)cc(C(=O)O)oc12)c1ccc(C(F)(F)F)cc1 | –
55 | 56.8 | COc1ccc(C(=O)Nc2cc(Br)cc3c(=O)cc(C(=O)O)oc23)nc1 | –
56 | 128 | Cc1cccc(C(=O)Nc2cc(Br)cc3c(=O)cc(C(=O)O)oc23)c1 | –
57 | 3290 | O=C(Nc1cccc2c(=O)cc(C(=O)O)oc12)c1ccccc1 | –
